The target of this assay is T1, HIV-1 RT (HIV-1 M:B_HXB2R, UniProt P04585).
T1 construct: gene gag-pol; mature RT cut from Gag-Pol polyprotein
Briefly: RNase H inhibition assay. It is filed as biochemical. The note with it: RNase H activity; read-out: IC50 (μg/mL)^∗ / HIV-1 / RNase H. The source says: RNase H inhibition assay on HIV-1 RT

With RDS1759, the IC50 came out at 7.1 ± 0.5 µM.
